Measured values from patent US8592421B2, “Cyclic bioisosters of purine system derivatives and a pharmaceutical composition based thereon” (priority 2003, dated 2013).

Assays:
[1] = Chronic toxicity of suppositories: indexes of peripheral blood; type: in vivo, rats; design: Thrombocytes: unit not given here
[2] = test system: plasma hemostasis; assay: Prothrombin time after intravenous administration; type: in vivo, rabbit; conditions: for effect on the prothrombin time index: doses of 15.0, 30.0, 60.0 mg/kg
Description: The static parameters of the blood and plasma coagulation (partial activated thromboplastin time, thrombin time, maximum coagulation activity (test for auto coagulation) were determined using the Behnk Electronic coagulometer (Germany). The operating principle of this instrument is based on the fact that the formed blood clot breaks the contacts of the pulse counter in the flask-pin circuit, said pin permanently oscillating in a vertical plane. The moment of formation of the clot is registered by stopping the stop watch hand.
The measurements were effected at a constant temperature of 37° C. maintained by a temperature control unit.
The method of its determination is based on estimation of the coagulation of citrate or oxalic blood plasma, when it is mixed with thromboplastin and a calcium chloride solution. Since under these conditions the time of formation of the clot depends on the content of II, VII, IX and X factors in the investigated plasma sample, now the test is called “thromboplastin time by Quick” or “activity thromboplastin complex”.
Citrate blood containing 1 part of citrate per 9 parts of native blood was centrifuged at 3000 rev/min for 10 minutes to obtain plasma deprived of thrombocytes.
Added into a test tube in a water bath were 0.1 ml of plasma and 0.1 ml of a thromboplastin solution.

[3] = Chronic toxicity of suppositories: indexes of urine; type: in vivo, rats; conditions: rat, in vivo
Description: The experiments were conducted on inbred rats.

[4] = 15.0 mg/kg intravenously, after 15 minutes, control 11.8 ± 0.1
[5] = 15.0 mg/kg intravenously, after 30 minutes, control 11.8 ± 0.1
[6] = 15.0 mg/kg intravenously, after 60 minutes, control 11.8 ± 0.1
[7] = 15.0 mg/kg intravenously, after 120 minutes, control 11.8 ± 0.1
[8] = 30.0 mg/kg intravenously, after 15 minutes, control 11.2 ± 0.1
[9] = 30.0 mg/kg intravenously, after 30 minutes, control 11.2 ± 0.1
[10] = 30.0 mg/kg intravenously, after 60 minutes, control 11.2 ± 0.1
[11] = 30.0 mg/kg intravenously, after 120 minutes, control 11.2 ± 0.1
[12] = 60.0 mg/kg intravenously, after 15 minutes, control 12.0 ± 0.1
[13] = 60.0 mg/kg intravenously, after 30 minutes, control 12.0 ± 0.1
[14] = 60.0 mg/kg intravenously, after 60 minutes, control 12.0 ± 0.1
[15] = 60.0 mg/kg intravenously, after 120 minutes, control 12.0 ± 0.1
[16] = male rats, suppositories rectally, 50 mg/kg, 1 month/2 months (one value given), control 0
[17] = male rats, suppositories rectally, 500 mg/kg, 1 month/2 months (one value given), control 0

SMILES: Nc1ccnc2c(=O)n([C@@H]3O[C@H](CO)[C@@H](O)[C@H]3O)[nH]c(=O)c12 [Compound 2, 4-amino-7-(β-D-ribofuranosile)pyrido[2,3-d]-6H-pyridazine-5,8-dione]
- Average volume of erythrocytes ([1]; rat, in vivo, 50 mg/kg): 83.4 ± 1.4 Mkm^3
- Basophiles ([1]; rat, in vivo, 50 mg/kg): 0%
- Juveniles ([1]; rat, in vivo, 50 mg/kg): 0%
- Reticulocytes ([1]; rat, in vivo, 50 mg/kg): 2.8 ± 0.2/2.8 ± 0.2%
- Average volume of erythrocytes ([1]; rat, in vivo, 500 mg/kg): 85.2 ± 1.2 Mkm^3
- Basophiles ([1]; rat, in vivo, 500 mg/kg): 0%
- Juveniles ([1]; rat, in vivo, 500 mg/kg): 0%
- prothrombin time, T [2, 4]: 11.7 ± 0.2 s
- prothrombin time, T [2, 5]: 11.5 ± 0.2 s
- prothrombin time, T [2, 6]: 11.4 ± 0.2 s
- prothrombin time, T [2, 7]: 11.7 ± 0.1 s
- prothrombin time, T [2, 8]: 11.1 ± 0.2 s
- prothrombin time, T [2, 9]: 11.0 ± 0.1 s
- prothrombin time, T [2, 10]: 11.3 ± 0.1 s
- prothrombin time, T [2, 11]: 11.2 ± 0.2 s
- prothrombin time, T [2, 12]: 12.0 ± 0.1 s
- prothrombin time, T [2, 13]: 11.9 ± 0.2 s
- prothrombin time, T [2, 14]: 12.1 ± 0.2 s
- prothrombin time, T [2, 15]: 11.9 ± 0.1 s
- effect on the prothrombin time index [2]: have no effect on the prothrombin time index
- Bilirubin (urine) ([3]; 50 mg/kg): <5 Mkmol/l
- Glucose (urine) ([3]; 50 mg/kg): <5 mmol/L
- Ketone bodies (urine) ([3]; 50 mg/kg): <1 mmol/L
- Potassium (urine) ([3]; 50 mg/kg): 5.78 ± 1.7 g/L
- Protein (urine) ([3]; 50 mg/kg): 0.69 ± 0.33 g/L
- Sodium (urine) ([3]; 50 mg/kg): 1.7 ± 0.3 g/L
- Urea (urine) ([3]; 50 mg/kg): 457 ± 144 mmol/L
- Urobilinogen (urine) ([3]; 50 mg/kg): <16 Mkmol/l
- pH (urine) ([3]; 50 mg/kg): 6.1 ± 0.3
- Bilirubin (urine) ([3]; 500 mg/kg): <5 Mkmol/l
- Glucose (urine) ([3]; 500 mg/kg): <5 mmol/L
- Ketone bodies (urine) ([3]; 500 mg/kg): <1 mmol/L
- Potassium (urine) ([3]; 500 mg/kg): 6.24 ± 1.8 g/L
- Protein (urine) ([3]; 500 mg/kg): 0.76 ± 0.31 g/L
- Sodium (urine) ([3]; 500 mg/kg): 1.27 ± 0.3 g/L
- Urea (urine) ([3]; 500 mg/kg): 492 ± 187 mmol/L
- Urobilinogen (urine) ([3]; 500 mg/kg): <16 Mkmol/l
- pH (urine) ([3]; 500 mg/kg): 6.2 ± 0.2

SMILES: Nc1cnc2c(=O)n([C@@H]3O[C@H](CO)[C@@H](O)[C@H]3O)[nH]c(=O)c2n1.[Na] [Compound 21, sodium salt of 3-amino-7-(β-D-ribofuranosile)pyrazine[2,3-d]-6H-pyridazine-5,8-dione]
- prothrombin time, T [2, 4]: 11.4 ± 0.2 s
- prothrombin time, T [2, 5]: 11.5 ± 0.1 s
- prothrombin time, T [2, 6]: 11.3 ± 0.1 s
- prothrombin time, T [2, 7]: 11.5 ± 0.2 s
- prothrombin time, T [2, 8]: 11.2 ± 0.1 s
- prothrombin time, T [2, 9]: 11.2 ± 0.1 s
- prothrombin time, T [2, 10]: 11.3 ± 0.2 s
- prothrombin time, T [2, 11]: 11.2 ± 0.2 s
- prothrombin time, T [2, 12]: 12.0 ± 0.2 s
- prothrombin time, T [2, 13]: 11.8 ± 0.1 s
- prothrombin time, T [2, 14]: 12.1 ± 0.1 s
- prothrombin time, T [2, 15]: 12.0 ± 0.2 s
- effect on the prothrombin time index [2]: have no effect on the prothrombin time index

SMILES: O=c1[nH]n([C@@H]2O[C@H](CO)[C@@H](O)[C@H]2O)c(=O)c2nc(O)cnc12.[Na].[Na] [Compound 23, disodium salt of 2-hydroxy-7-(β-D-ribofuranosile)pyrazine[2,3—Cl]-6H-pyridazine-5,8-dione]
- Basophiles [1, 16]: 0%
- Juveniles [1, 16]: 0%
- Stab neutrophil ([1]; male rats, suppositories rectally, 50 mg/kg, 1 month, control 0.8 ± 0.4): 1.1 ± 0.5%
- REE ([1]; male rats, suppositories rectally, 50 mg/kg, 1 month, control 2.2 ± 0.4): 1.7 ± 0.8 mm/h
- Reticulocytes ([1]; male rats, suppositories rectally, 50 mg/kg, 1 month, control 2.8%0.3): 2.7 ± 0.3%
- Eosinophiles ([1]; male rats, suppositories rectally, 50 mg/kg, 1 month, control 4.0 + 0.3): 3.6 ± 0.5%
- Erythrocytes ([1]; male rats, suppositories rectally, 50 mg/kg, 1 month, control 5.6 ± 0.1): 5.7 ± 0.1 mln/mm^3
- Hemoglobin ([1]; male rats, suppositories rectally, 50 mg/kg, 1 month, control 10.5 ± 0.2): 10.7 ± 0.1 mmol/L
- Leukocyte ([1]; male rats, suppositories rectally, 50 mg/kg, 1 month, control 17.4 ± 1.3): 15.5 ± 1.1 thousand/mm^3
- Haematocrite ([1]; male rats, suppositories rectally, 50 mg/kg, 1 month, control 45.9 ± 1.7): 47.7 ± 1.2%
- Average volume of erythrocytes ([1]; male rats, suppositories rectally, 50 mg/kg, 1 month, control 81.4 ± 1.7): 82.7 ± 1.6 Mkm^3
- Coagulation, time ([1]; male rats, suppositories rectally, 50 mg/kg, 1 month, control 152 ± 10.2): 150 ± 15 s
- Thrombocytes ([1]; male rats, suppositories rectally, 50 mg/kg, 1 month, control 707 ± 23): 659 ± 18
- REE ([1]; male rats, suppositories rectally, 50 mg/kg, 2 months, control 1.4 ± 0.2): 1.5 ± 0.1 mm/h
- Stab neutrophil ([1]; male rats, suppositories rectally, 50 mg/kg, 2 months, control 2.4 ± 0.4): 1.6 ± 0.2%
- Reticulocytes ([1]; male rats, suppositories rectally, 50 mg/kg, 2 months, control 2.9 ± 0.2): 2.8 ± 0.1%
- Eosinophiles ([1]; male rats, suppositories rectally, 50 mg/kg, 2 months, control 4.4 + 1.2): 4.0 ± 0.7%
- Erythrocytes ([1]; male rats, suppositories rectally, 50 mg/kg, 2 months, control 6.1 ± 0.1): 6.0 ± 0.2 mln/mm^3
- Hemoglobin ([1]; male rats, suppositories rectally, 50 mg/kg, 2 months, control 11.4 ± 0.2): 11.0 ± 0.1 mmol/L
- Leukocyte ([1]; male rats, suppositories rectally, 50 mg/kg, 2 months, control 19.1 ± 1.9): 17.6 ± 1.2 thousand/mm^3
- Haematocrite ([1]; male rats, suppositories rectally, 50 mg/kg, 2 months, control 45.9 ± 1.8): 46.5 ± 1.3%
- Average volume of erythrocytes ([1]; male rats, suppositories rectally, 50 mg/kg, 2 months, control 74.6 + 1.9): 77.5 ± 1.7 Mkm^3
- Coagulation, time ([1]; male rats, suppositories rectally, 50 mg/kg, 2 months, control 316 ± 8): 313 ± 17 s
- Thrombocytes ([1]; male rats, suppositories rectally, 50 mg/kg, 2 months, control 593 ± 14): 586 ± 28
- Basophiles [1, 17]: 0%
- Juveniles [1, 17]: 0%
- Stab neutrophil ([1]; male rats, suppositories rectally, 500 mg/kg, 1 month, control 0.8 ± 0.4): 1.0 ± 0.3%
- REE ([1]; male rats, suppositories rectally, 500 mg/kg, 1 month, control 2.2 ± 0.4): 2.0 ± 0.3 mm/h
- Reticulocytes ([1]; male rats, suppositories rectally, 500 mg/kg, 1 month, control 2.8%0.3): 3.1 ± 0.1%
- Eosinophiles ([1]; male rats, suppositories rectally, 500 mg/kg, 1 month, control 4.0 + 0.3): 3.3 ± 0.7%
- Erythrocytes ([1]; male rats, suppositories rectally, 500 mg/kg, 1 month, control 5.6 ± 0.1): 5.7 ± 0.2 mln/mm^3
- Hemoglobin ([1]; male rats, suppositories rectally, 500 mg/kg, 1 month, control 10.5 ± 0.2): 10.7 ± 0.2 mmol/L
- Leukocyte ([1]; male rats, suppositories rectally, 500 mg/kg, 1 month, control 17.4 ± 1.3): 16.4 ± 1.1 thousand/mm^3
- Haematocrite ([1]; male rats, suppositories rectally, 500 mg/kg, 1 month, control 45.9 ± 1.7): 47.9 ± 1.1%
- Average volume of erythrocytes ([1]; male rats, suppositories rectally, 500 mg/kg, 1 month, control 81.4 ± 1.7): 83.5 ± 1.7 Mkm^3
- Coagulation, time ([1]; male rats, suppositories rectally, 500 mg/kg, 1 month, control 152 ± 10.2): 156 ± 11 s
- Thrombocytes ([1]; male rats, suppositories rectally, 500 mg/kg, 1 month, control 707 ± 23): 678 ± 18
- REE ([1]; male rats, suppositories rectally, 500 mg/kg, 2 months, control 1.4 ± 0.2): 1.7 ± 0.3 mm/h
- Stab neutrophil ([1]; male rats, suppositories rectally, 500 mg/kg, 2 months, control 2.4 ± 0.4): 1.6 ± 0.2%
- Reticulocytes ([1]; male rats, suppositories rectally, 500 mg/kg, 2 months, control 2.9 ± 0.2): 3.4 ± 0.1%
- Eosinophiles ([1]; male rats, suppositories rectally, 500 mg/kg, 2 months, control 4.4 + 1.2): 3.8 ± 1.3%
- Erythrocytes ([1]; male rats, suppositories rectally, 500 mg/kg, 2 months, control 6.1 ± 0.1): 6.4 ± 0.2 mln/mm^3
- Hemoglobin ([1]; male rats, suppositories rectally, 500 mg/kg, 2 months, control 11.4 ± 0.2): 12.3 ± 0.3 mmol/L
- Leukocyte ([1]; male rats, suppositories rectally, 500 mg/kg, 2 months, control 19.1 ± 1.9): 20.1 ± 1.7 thousand/mm^3
- Haematocrite ([1]; male rats, suppositories rectally, 500 mg/kg, 2 months, control 45.9 ± 1.8): 49.4 ± 1.9%
- Average volume of erythrocytes ([1]; male rats, suppositories rectally, 500 mg/kg, 2 months, control 74.6 + 1.9): 82.1 ± 1.4 Mkm^3
- Coagulation, time ([1]; male rats, suppositories rectally, 500 mg/kg, 2 months, control 316 ± 8): 3171 ± 12 s
- Thrombocytes ([1]; male rats, suppositories rectally, 500 mg/kg, 2 months, control 593 ± 14): 628 ± 23
